Experimental data: US4847387A, “Antibiotic compounds DC-92B and DC-92D” (Kyowa Hakko Kogyo Co., Ltd., priority 1986, dated 1989)
≈ marks a conversion by molar mass, not a printed value. Like-named read-outs stand apart in the source and are kept apart here.

Tests used:
[1] = system: lymphocytic leukemia P388 tumor; assay: Therapeutic effect against lymphocytic leukemia P388 tumor; type: in vivo, male CDF1 mice
Procedure: Five male CDF1 mice each having a weight of about 22 g were used for each group as test animals, and 1×10^6 cells of lymphocytic leukemia P388 tumor were implanted intraperitoneally into the test animals. 0.2 ml of PBS containing DC-92B or DC-92D was administered once intraperitoneally 24 hours after implantation.
(§1) For comparison, 0.2 ml of PBS containing mitomycin C was intraperitoneally administered to a group of animals 24 hours after tumor implantation.
*Continuous administration for five days

[2] = Basicity; type: physicochemical
[3] = system: Sarcoma 180 ascites tumor; assay: Therapeutic effect against Sarcoma 180 tumor; type: in vivo, male ddY-strain mice; conditions: ten days after implantation
Procedure: Six male ddY-strain mice each having a weight of about 20 g were used for each group as test animals, and 5×10^6 cells of Sarcoma 180 ascites tumor were implanted subcutaneously into the animals at the axilla. 0.2 ml of phosphate buffered saline (hereinafter referred to as PBS) containing DC-92B or DC-92D at various concentrations was administered once intraperitoneally 24 hours after implantation. The composition of PBS was 0.8 g/dl NaCl, 0.02 g/dl KCl, […] Na2 HPO4 and 0.02 g/dl KH2 PO4 (pH 7.2).
as §1

[4] = in vivo; conditions: mouse, ip, mice, intraperitoneal administration, read-out: acute toxicity value (LD50)
[5] = system: Staphylococcus aureus ATCC 6538P; assay: Minimum inhibitory concentration, agar dilution method; type: cell-based; conditions: ATCC6538P, pH 7, read-out: Minimum Inhibitory Concentration (MIC)
Procedure: (§2) (A) Minimum Inhibitory Concentration Against Various Bacteria (MIC: μg/ml)
(§3) The antibacterial activity was evaluated by the agar dilution method using a medium (pH 7) prepared by dissolving 3 g of Bacto-Tryptone (Difco Laboratories), 3 g of meat extract, 1 g of yeast extract, 1 g of glucose and 16 g of agar in 1 liter of water.

[6] = system: Shigella sonnei ATCC 9290; assay: as above; type: cell-based
Procedure: as §2, §3

[7] = system: Klebsiella pneumoniae ATCC 10031; assay: as above; type: cell-based
Procedure: as §2, §3

[8] = system: Escherichia coli ATCC 26; assay: as above; type: cell-based
Procedure: as §2, §3

[9] = system: Salmonella typhosa ATCC 9992; assay: as above; type: cell-based; conditions: Salmonella enterica
Procedure: as §2, §3

[10] = system: Bacillus subtilis No. 10707; assay: as above; type: cell-based
Procedure: as §2, §3

[11] = Solubility
[12] = 0.0125 mg/kg, continuous administration for five days
[13] = 0.025 mg/kg, continuous administration for five days
[14] = 0.15 mg/kg, once i.p. 24 h after implantation
[15] = 0.31 mg/kg, once i.p. 24 h after implantation
[16] = methanol, ethanol, acetone, chloroform, ethyl acetate, toluene and dimethylsulfoxide
[17] = 0.39 mg/kg, once i.p. 24 h after implantation
[18] = 0.78 mg/kg, once i.p. 24 h after implantation
[19] = 1.56 mg/kg, once i.p. 24 h after implantation
[20] = 3.13 mg/kg, once i.p. 24 h after implantation
[21] = 1.563 mg/kg, once i.p. 24 h after implantation
[22] = 3.125 mg/kg, once i.p. 24 h after implantation
[23] = 6.25 mg/kg, once i.p. 24 h after implantation
[24] = 6.0 mg/kg, i.p. 24 h after implantation

Cc1cc2c(c3oc(C4(C)OC4C4OC4(C)C)cc(=O)c13)C(=O)c1c(O)c(C3CC(C)(N(C)C)C(O)C(C)(O)O3)cc(C3CC(N(C)C)C(O)C(C)O3)c1C2=O (stereo not drawn) [DC-92B]
Increased Life Span (T/C) [1, 12]: 1.41 | Survival days (mean) [1, 12]: 15.5 days | Increased Life Span (T/C) [1, 13]: 1.41 | Survival days (mean) [1, 13]: 15.5 days | Increased Life Span (T/C) [1, 14]: 1.47 | Survival days (mean) [1, 14]: 16.2 days | Basicity [2]: Weakly basic | Average tumor volume [3, 15]: 828.6 mm^3 | T/C (average tumor volume) [3, 15]: 0.39 | LD50 [4]: ~0.31 mg/kg | MIC [5]: 0.04 µg/mL (≈ 0.0515 µM) | MIC ([6]; ATCC9290, pH 7, read-out: Minimum Inhibitory Concentration (MIC)): 10 µg/mL (≈ 12.9 µM) | MIC ([7]; ATCC10031, pH 7, read-out: Minimum Inhibitory Concentration (MIC)): 2.5 µg/mL (≈ 3.22 µM) | MIC ([8]; ATCC26, pH 7, read-out: Minimum Inhibitory Concentration (MIC)): 10 µg/mL (≈ 12.9 µM) | MIC ([9]; pH 7, read-out: Minimum Inhibitory Concentration (MIC)): 40 µg/mL (≈ 51.5 µM) | MIC ([10]; NO.10707, pH 7, read-out: Minimum Inhibitory Concentration (MIC)): 0.15 µg/mL (≈ 0.193 µM) | Solubility [11, 16]: Soluble | Solubility ([11]; water and hexane): sparingly soluble

Cc1cc2c(c3oc(C4(C)OC4C4OC4(C)C)cc(=O)c13)C(=O)c1c(O)c(C3CC(C)(N(C)C)C(O)C(C)(O)O3)cc(C3=CC(N(C)C)C(O)C(C)O3)c1C2=O (stereo not drawn) [DC-92D]
Increased Life Span (T/C) [1, 17]: 1.04 | Survival days (mean) [1, 17]: 11.4 days | Survival days (mean) ([1]; 0.75 mg/kg, 120 h): 17.4 days | Increased Life Span (T/C) ([1]; 0.75 mg/kg, continuous administration for five days): 1.58 | Increased Life Span (T/C) [1, 18]: 1.17 | Survival days (mean) [1, 18]: 12.9 days | Increased Life Span (T/C) [1, 19]: 1.15 | Survival days (mean) [1, 19]: 12.7 days | Increased Life Span (T/C) [1, 20]: 0.69 | Survival days (mean) [1, 20]: 7.6 days | Basicity [2]: Weakly basic | Average tumor volume [3, 21]: 1444.8 mm^3 | T/C (average tumor volume) [3, 21]: 0.68 | Average tumor volume [3, 22]: 679.9 mm^3 | T/C (average tumor volume) [3, 22]: 0.32 | Average tumor volume [3, 23]: 764.9 mm^3 | T/C (average tumor volume) [3, 23]: 0.36 | LD50 [4]: ~5.6 mg/kg | MIC ([5]; agar dilution): 1.5 µg/mL (≈ 1.94 µM) | MIC ([6]; ATCC9290, agar dilution, pH 7, read-out: Minimum Inhibitory Concentration (MIC)): 100 µg/mL (≈ 129 µM) | MIC ([7]; ATCC10031, agar dilution, pH 7, read-out: Minimum Inhibitory Concentration (MIC)): 25 µg/mL (≈ 32.3 µM) | MIC ([8]; ATCC26, agar dilution, pH 7, read-out: Minimum Inhibitory Concentration (MIC)): 100 µg/mL (≈ 129 µM) | MIC ([9]; agar dilution, pH 7, read-out: Minimum Inhibitory Concentration (MIC)): 100 µg/mL (≈ 129 µM) | MIC ([10]; NO.10707, agar dilution, pH 7, read-out: Minimum Inhibitory Concentration (MIC)): 3 µg/mL (≈ 3.87 µM) | Solubility [11, 16]: Soluble | Solubility ([11]; water and hexane): sparingly soluble

CO[C@@]12[C@H](COC(N)=O)C3=C(C(=O)C(C)=C(N)C3=O)N1C[C@@H]1N[C@@H]12 [Mitomycin C, reference compound]
Increased Life Span (T/C) [1, 24]: 1.63 | Survival days (mean) [1, 24]: 17.9 days | Average tumor volume [3, 24]: 743.8 mm^3 | T/C (average tumor volume) [3, 24]: 0.35
